In patent US9765043B2, “Salts of potassium ATP channel openers and uses thereof” (Essentialis, Inc., priority 2012, dated 2017):
“Also recorded” adds a separate entry of the source. Like-named read-outs stand apart in the source and are kept apart here. Each block holds one compound with its values, some of them ahead of it.

Tests used:
[1] = tested on: hypertriglyceridemic patients; assay: Clinical study in 12 hypertriglyceridemic patients (formulation U / K′ crossover): lipids; assay type: in vivo, human; conditions: 435 mg/day diazoxide choline once per day, 15 days
Protocol: A clinical study was conducted in 12 hypertriglyceridemic patients. […] Treatment continued for 16 days. The endpoint of the study was percentage change from baseline to day 15 of triglycerides, total cholesterol, LDL cholesterol, HDL cholesterol and non-HDL cholesterol. Lipid parameters were measured at baseline and on days 7 and 15. Blood pressure was collected at multiple time points.

[2] = Form conversion and degradation under thermal stress
Protocol: Studies were also conducted to evaluate the likelihood for conversion and degradation under thermal stress.

healthy volunteers [3] = tested on: healthy volunteers
Protocol: (§1) A randomized double-blind, placebo-controlled clinical trial was conducted in 24 healthy volunteers. They were randomized in a 2:1 ratio of treated to placebo. […] The dose was administered once per day in the morning for a period of 7 days. A number of lipid parameters were measured at baseline and again on day 7 including fasting triglycerides, total cholesterol, LDL cholesterol, HDL cholesterol, and non-HDL cholesterol. Additionally, blood pressure was measured on a daily basis.

healthy volunteers [4] = tested on: healthy volunteers; remark: listed apart in the source
Protocol: as §1
In PK008, the dose was administered as one and one ½ tablet formulation K′.

[5] = Slurry studies of solid form inter-conversion; assay type: physicochemical; conditions: for propensity of inter-conversion of the solid form in slurry: room temperature, absence of light, up to 14 days, solvents per substance (water, IPA, CH2Cl2, toluene, n-heptane, EtOAc, MeCN, THF, t-AmOH); for Slurries: diazoxide potassium salt, room-temperature slurry
[6] = Excipient compatibility study for diazoxide choline salt; assay type: physicochemical
[7] = Moisture sorption analysis; assay type: physicochemical; conditions: 25° C.
Protocol: Moisture Sorption Analysis was performed with a Hiden IGAsorp Moisture Sorption Instrument. […] The samples were allowed to equilibrate to an asymptotic weight at each point for a maximum of 4 hours. […] The resulting samples after desorption were dried at 80° C. for two hours and analyzed by XRPD.

[8] = tested on: Zucker Diabetic Fatty (ZDF) rats; conditions: 150 mg/kg/day, 8 weeks; cited from earlier work
Zucker rats = conditions: oral 1-10 mg/kg/day for 14 days; cited from earlier work
[9] = Study EC004, 435 mg, 7 days, Baseline
[10] = Study EC004, 435 mg, 7 days, End of treatment
[11] = Study TR002, 508 mg, 49 days, Baseline
[12] = Study TR002, 508 mg, 49 days, End of treatment
[13] = 60° C., closed environment, protected from light, 7 and 14 days, XRPD, DSC, HPLC

- conversion and degradation under thermal stress [2]: did not show any significant degradation
- propensity of inter-conversion of the solid form in slurry ([5]; listed as choline salt): no propensity of inter-conversion
Compound: CC1=Nc2ccc(Cl)cc2S(=O)(=O)[N-]1.C[N+](C)(C)CCO [Choline diazoxide salt]
- lipid response [1]: marked reductions in triglycerides, total cholesterol, LDL cholesterol, and nonHDL cholesterol and a marked increase in HDL cholesterol
- HDL cholesterol, mean ± SEM (healthy volunteers [3]; 300 mg diazoxide/day, Baseline): 49 ± 3.3 mg/dL
- LDL cholesterol, mean ± SEM (healthy volunteers [3]; 300 mg diazoxide/day, Baseline): 111 ± 5.8 mg/dL
- Total cholesterol, mean ± SEM (healthy volunteers [3]; 300 mg diazoxide/day, Baseline): 175 ± 7.5 mg/dL
- Triglycerides, mean ± SEM (healthy volunteers [3]; 300 mg diazoxide/day, Baseline): 76 ± 7.8 mg/dL
- non-HDL cholesterol, mean ± SEM (healthy volunteers [3]; 300 mg diazoxide/day, Baseline): 126 ± 6.6 mg/dL
- HDL cholesterol, Percent change from baseline (healthy volunteers [3]; 300 mg diazoxide/day, Day 7): 8.2%
- HDL cholesterol, mean ± SEM (healthy volunteers [3]; 300 mg diazoxide/day, Day 7): 53 ± 2.9 mg/dL
- LDL cholesterol, Percent change from baseline (healthy volunteers [3]; 300 mg diazoxide/day, Day 7): −5.4%
- LDL cholesterol, mean ± SEM (healthy volunteers [3]; 300 mg diazoxide/day, Day 7): 105 ± 4.9 mg/dL
- Total cholesterol, Percent change from baseline (healthy volunteers [3]; 300 mg diazoxide/day, Day 7): −2.3%
- Total cholesterol, mean ± SEM (healthy volunteers [3]; 300 mg diazoxide/day, Day 7): 171 ± 6.4 mg/dL
- Triglycerides, Percent change from baseline (healthy volunteers [3]; 300 mg diazoxide/day, Day 7): −13.2%
- Triglycerides, mean ± SEM (healthy volunteers [3]; 300 mg diazoxide/day, Day 7): 66 ± 3.9 mg/dL
- non-HDL cholesterol, Percent change from baseline (healthy volunteers [3]; 300 mg diazoxide/day, Day 7): −6.3%
- non-HDL cholesterol, mean ± SEM (healthy volunteers [3]; 300 mg diazoxide/day, Day 7): 118 ± 5.5 mg/dL
- reduction in total cholesterol, LDL cholesterol and non-HDL cholesterol vs placebo arm (healthy volunteers [3]; baseline to day 7, 300 mg/day diazoxide as formulation U): greater for each lipid parameter than the corresponding reduction in the placebo arm
- Diastolic blood pressure (healthy volunteers [4]; [9]): 69.4 mmHg
- Systolic blood pressure (healthy volunteers [4]; [9]): 113.2 mmHg
- Diastolic blood pressure (healthy volunteers [4]; [10]): 63.2 mmHg
- Systolic blood pressure (healthy volunteers [4]; [10]): 113.5 mmHg
- Diastolic blood pressure (healthy volunteers [4]; [11]): 77.7 mmHg
- Systolic blood pressure (healthy volunteers [4]; [11]): 118.1 mmHg
- Diastolic blood pressure (healthy volunteers [4]; [12]): 67.0 mmHg
- Systolic blood pressure (healthy volunteers [4]; [12]): 117.0 mmHg

- 1 Month 40° C./75% RH % (w/w) ([6]; one-month storage 40° C./75% RH): 99.0 % (w/w)
- 1 Month 50° C. % (w/w) ([6]; one-month storage 50° C.): 99.4 % (w/w)
Compound: CC1=Nc2ccc(Cl)cc2S(=O)(=O)N1 [Diazoxide Control]

- conversion and degradation under thermal stress [2]: Started to convert to Form
- Moisture sorption (hygroscopicity) [7]: hygroscopic solid
- water absorbed at 60% RH ([7]; listed as Form A): 2.4 wt %
Compound: CC1=Nc2ccc(Cl)cc2S(=O)(=O)[N-]1.C[N+](C)(C)CCO [Diazoxide choline salt Form A]
- propensity of inter-conversion of the solid form in slurry ([5]; listed as Form A): conversion to Form B was observed after seven days; also recorded: readily converted to Form B in all slurry solvents utilized; also recorded: Converted to Form B after

- conversion and degradation under thermal stress [2]: Stable after 14 days at
- water absorbed at 60% RH ([7]; listed as Form B): 7.4 wt %
Compound: CC1=Nc2ccc(Cl)cc2S(=O)(=O)[N-]1.C[N+](C)(C)CCO [Diazoxide choline salt Form B]
- propensity of inter-conversion of the solid form in slurry ([5]; listed as Form B): form conversion was not observed; also recorded: Stable after 14 days in

- Slurries [5]: Converted to Form D
Compound: CC1=NS(=O)(=O)c2cc(Cl)ccc2[N-]1.CC1=NS(=O)(=O)c2cc(Cl)ccc2[N-]1.O.[K+].[K+] [Diazoxide potassium salt Form D]

- Thermal ([2]; diazoxide potassium salt, thermal stress, 7 days): Stable (7 days)
- Slurries [5]: Converted to Form D
- Moisture sorption (hygroscopicity) [7]: hygroscopic solid
Compound: C1COCCO1.CC1=NS(=O)(=O)c2cc(Cl)ccc2[N-]1.CC1=NS(=O)(=O)c2cc(Cl)ccc2[N-]1.[K+].[K+] [Diazoxide potassium salt Form F]
- propensity of inter-conversion of the solid form in slurry [5]: readily converted to Form D in all slurry solvents utilized; also recorded: conversion to Form D was observed in all solvents

- conversion and degradation under thermal stress [2, 13]: no conversion or degradation
- water absorbed at 60% RH [7]: approximately 0.04 wt %
- water absorbed at 90% RH [7]: ~0.20 wt %
- Moisture sorption (hygroscopicity) ([7]; listed as Free form): no hysteresis
Compound: CC1=Nc2ccc(Cl)cc2S(=O)(=O)N1 [Diazoxide, 7-chloro-3-methyl-2H-1,2,4-benzothiadiazine 1,1 dioxide, reference compound]
- propensity of inter-conversion of the solid form in slurry [5]: did not convert to alternate crystal forms
- hepatic lipid contents [8]: decreased hepatic triglycerides, long chain acyl-CoA and cholesterol contents

Compound: N#CNC(=NCCc1ccccc1Cl)c1cncc(N)c1 [KRN4884]
- serum triglyceride levels (Zucker rats): dose dependently reduce serum triglyceride levels

- conversion and degradation under thermal stress [2, 13]: did not show any significant degradation
- propensity of inter-conversion of the solid form in slurry [5]: no propensity of inter-conversion
- water absorbed at 60% RH [7]: 5.4 wt %
- water absorbed at 90% RH [7]: 38.3 wt %
Compound: CC1=NS(=O)(=O)c2cc(Cl)ccc2[N-]1.[K+] [Potassium diazoxide salt]

- propensity of inter-conversion of the solid form in slurry [5]: no propensity of inter-conversion
- water absorbed at 60% RH [7]: 1.2 wt %
- water absorbed at 80% RH ([7]; 80% RH): 6.6 wt %
Compound: CC1=NS(=O)(=O)c2cc(Cl)ccc2[N-]1.[Na+] [Sodium diazoxide salt]
- conversion and degradation under thermal stress [2, 13]: little propensity to change form or degrade
